Reference: patent publication US8399429B2, “Uracyl cyclopropyl nucleotides” (Janssen Products, LP, priority 2008, dated 2013)

Tests used:
[1] = tested on: HCV replicon (Huh-7 luc/neo, NS3-NS5B of HCV type 1b); experiment: HCV replicon assay (Huh-Luc, luciferase readout); assay type: cell-based; conditions: Huh-Luc cells, HCV type 1b replicon, three days incubation, luciferase activity
From the text: The compounds of formula I were examined for activity in the inhibition of HCV RNA replication in a cellular assay aimed at identifying compounds that inhibit a HCV functional cellular replicating cell line, also known as HCV replicons. The cellular assay was based on a bicistronic expression construct, as described by Lohmann et al. (1999), Science vol. 285 pp. 110-113 with modifications described by Krieger et al. (2001), Journal of Virology 75: 4614-4624, in a multi-target screening strategy.
The assay utilized the stably transfected cell line Huh-7 luc/neo (hereafter referred to as Huh-Luc). This cell line harbors an RNA encoding a bicistronic expression construct comprising the wild type NS3-NS5B regions of HCV type 1b translated from an Internal Ribosome Entry Site (IRES) from encephalomyocarditis virus (EMCV), preceded by a reporter portion (FfL-luciferase), and a selectable marker portion (neoR, neomycine phosphotransferase). The construct is bordered by 5′ and 3′ NTRs (non-translated regions) from HCV type 1b. Continued culture of the replicon cells in the presence of G418 (neo^R) is dependent on the replication of the HCV RNA. The stably transfected replicon cells that express HCV RNA, which replicates autonomously and to high levels, encoding inter alia luciferase, were used for screening the antiviral compounds.
The replicon cells were plated in 384 well plates in the presence of the test and control compounds which were added in various concentrations. Following an incubation of three days, HCV replication was measured by assaying luciferase activity (using standard luciferase assay substrates and reagents and a Perkin Elmer ViewLux™ ultraHTS microplate imager). Replicon cells in the control cultures have high luciferase expression in the absence of any inhibitor. The inhibitory activity of the compound on luciferase activity was monitored on the Huh-Luc cells, enabling a dose-response curve for each test compound. EC50 values were then calculated, which value represents the amount of the compound required to decrease the level of detected luciferase activity by 50%, or more specifically, the ability of the genetically linked HCV replicon RNA to replicate.

[2] = Cellular toxicity in the HIV cell-line (MT-4); assay type: cell-based, human; conditions: human
Protocol: (§1) Compounds of the invention were tested for their potency against wild type human immunodeficiency virus (HIV). Antiviral activity was evaluated using a cellular assay performed according to the following procedure. The human T-cell line MT4 was engineered with Green Fluorescent Protein (GFP) and a HIV-specific promoter, HIV-1 long terminal repeat (LTR). This cell line, designated MT4 LTR-EGFP, can be used for the in vitro evaluation of anti-HIV activity of investigational compounds. In HIV-1 infected cells, the Tat protein is produced, which upregulates the LTR promotor and eventually leads to stimulation of the GFP reporter production, allowing to measure ongoing HIV-infection fluorometrically. Effective concentration values such as 50% effective concentration (EC50) can be determined and are usually expressed in μM. An EC50 value is defined as the concentration of test compound that reduces the fluorescence of HIV-infected cells by 50%. Monitoring of HIV-1 infection was done using a scanning microscope. Image analysis allows very sensitive detection of viral infection. Measurements were done before cell necrosis, which usually takes place about five days after infection, in particular measurements were performed three days after infection. The column IIIB in the table list the EC50 values against the wild type strain IIIB.
Also the HIV activity is given (EC50 HIV (μM)) and the cellular toxicity in the HIV cell-line (CC50 (μM) (MT-4)).

[3] = tested on: wild type human immunodeficiency virus (HIV) strain IIIB; experiment: HIV assay in MT4 LTR-EGFP cells; assay type: cell-based, HIV-1; conditions: Human immunodeficiency virus 1, IIIB, 72 h, three days after infection
Protocol: as §1

[4] = Cellular toxicity in Huh7-CMV-Luc replicon assay; assay type: cell-based; conditions: human, Huh7-CMV-Luc cells, three days incubation, Luc activity; read-out: CC50 (μM) (Huh-7)
Protocol: Cellular toxicity was determined in the Huh7-CMV-Luc replicon assay. Replicon cells (2500 cells/well), stably transformed with a luciferase reporter gene under control of the cytomegalovirus (CMV) constitutive promotor, were cultured in the presence or absence of test compound concentrations. After three days of incubation at 37° C. in a humidified 5% CO2 atmosphere, cell proliferation was quantified by measuring the Luc activity, and expressed as CC50 values (cytotoxicity, 50% inhibitory concentration of cell growth). Tests were performed in 384-well plates.

SMILES | EC50 [1] [µM] | CC50 [2] [µM] | EC50 [3] [µM] | CC50 at 3 days [4] [µM] | EC50 ([1]; Hepatitis C virus, Huh-7, 72 h) [µM]
C[C@H](NP(=O)(OC[C@H]1O[C@@H](n2ccc(=O)[nH]c2=O)C2(CC2)[C@@H]1O)Oc1ccc(Cl)cc1)C(=O)OCc1ccccc1 (single isomer, unassigned) [Compound 7a] | 10.9 | > 50 | > 60 | 58.4 | –
C[C@H](NP(=O)(OC[C@H]1O[C@@H](n2ccc(=O)[nH]c2=O)C2(CC2)[C@@H]1O)Oc1cccc2ccccc12)C(=O)OCc1ccccc1 (some centres unmarked) [Compound 1] | – | > 32 | > 50 | > 98 | 2.8
Cc1cc(OP(=O)(N[C@@H](C)C(=O)OCc2ccccc2)OC[C@H]2O[C@@H](n3ccc(=O)[nH]c3=O)C3(CC3)[C@@H]2O)c(C(C)C)cc1Cl (some centres unmarked) [Compound 2] | – | > 32 | > 50 | > 32 | 14.3
CC(C)OC(=O)[C@H](C)NP(=O)(OC[C@H]1O[C@@H](n2ccc(=O)[nH]c2=O)C2(CC2)[C@@H]1O)Oc1ccccc1 (some centres unmarked) [Compound 3] | – | > 98 | > 98 | > 98 | 9.6
CC(C)(NP(=O)(OC[C@H]1O[C@@H](n2ccc(=O)[nH]c2=O)C2(CC2)[C@@H]1O)Oc1ccccc1)C(=O)OCc1ccccc1 (some centres unmarked) [Compound 4] | – | > 98 | > 98 | > 98 | 23.9
CCOC(=O)[C@H](C)NP(=O)(OC[C@H]1O[C@@H](n2ccc(=O)[nH]c2=O)C2(CC2)[C@@H]1O)Oc1ccccc1 (some centres unmarked) [Compound 5] | – | > 98 | > 90 | > 98 | 9.2
O=C(CNP(=O)(OC[C@H]1O[C@@H](n2ccc(=O)[nH]c2=O)C2(CC2)[C@@H]1O)Oc1cccc2ccccc12)OCc1ccccc1 (some centres unmarked) [Compound 6] | – | > 98 | > 90 | > 98 | 16.5
C[C@H](NP(=O)(OC[C@H]1O[C@@H](n2ccc(=O)[nH]c2=O)C2(CC2)[C@@H]1O)Oc1ccc(Cl)cc1)C(=O)OCc1ccccc1 (some centres unmarked) [Compound 7] | – | > 64 | > 90 | > 90 | 6.1
CCOC(=O)[C@H](C)NP(=O)(OC[C@H]1O[C@@H](n2ccc(=O)[nH]c2=O)C2(CC2)[C@@H]1O)Oc1ccc(Cl)cc1 (some centres unmarked) [Compound 8] | – | > 98 | > 98 | > 98 | 5.9
C[C@H](NP(=O)(OC[C@H]1O[C@@H](n2ccc(=O)[nH]c2=O)C2(CC2)[C@@H]1O)Oc1ccccc1)C(=O)OCc1ccccc1 (some centres unmarked) [Compound 9] | – | > 98 | > 85 | > 98 | 2.9
CCCC(CCC)COC(=O)[C@H](C)NP(=O)(OC[C@H]1O[C@@H](n2ccc(=O)[nH]c2=O)C2(CC2)[C@@H]1O)Oc1ccccc1 (some centres unmarked) [Compound 10] | – | 29 | > 60 | > 32 | 2.8
C[C@H](NP(=O)(OC[C@H]1O[C@@H](n2ccc(=O)[nH]c2=O)C2(CC2)[C@@H]1O)Oc1ccccc1)C(=O)OCC(C)(C)C (some centres unmarked) [Compound 11] | – | > 98 | > 98 | > 98 | 2.8
CCCCOC(=O)[C@H](C)NP(=O)(OC[C@H]1O[C@@H](n2ccc(=O)[nH]c2=O)C2(CC2)[C@@H]1O)Oc1ccccc1 (some centres unmarked) [Compound 12] | – | > 98 | > 98 | > 98 | 3.1
CC(C)COC(=O)[C@H](C)NP(=O)(OC[C@H]1O[C@@H](n2ccc(=O)[nH]c2=O)C2(CC2)[C@@H]1O)Oc1ccccc1 (some centres unmarked) [Compound 13] | – | > 98 | > 98 | > 98 | 3.2
C[C@H](NP(=O)(OC[C@H]1O[C@@H](n2ccc(=O)[nH]c2=O)C2(CC2)[C@@H]1O)Oc1ccccc1)C(=O)OC1CCCC1 (some centres unmarked) [Compound 14] | – | > 98 | > 98 | > 98 | 3.3
CCOC(=O)c1ccccc1OP(=O)(N[C@@H](C)C(=O)OCc1ccccc1)OC[C@H]1O[C@@H](n2ccc(=O)[nH]c2=O)C2(CC2)[C@@H]1O (some centres unmarked) [Compound 34] | – | – | – | > 98 | 11
